Test results published in US20060281791A1, “Methods of increasing proliferation of adult mammalian cardiomyocytes through p38 map kinase inhibition” (CHILDREN'S MEDICAL CENTER CORPORATION, priority 2005, published 2006).
Several values for one entry are separate records, joined by “and”; a condition that tells them apart may be missing. Equal values may be shown once.

Tested on: neonatal rat cardiomyocytes
Test: cDNA microarray analysis (Affymetrix Rat Expression Set 230), x-fold changes of clustered genes
Format: cell-based
Settings: 72 h, experiments (1) and (2)
Protocol: Animal experiments were performed in accordance with guidelines of Children's Hospital, Boston and UCLA. Ventricular cardiomyocytes from fetal (E19), 2-day-old (P2) and adult (250-350 g) Wistar rats (Charles River) were isolated as described with minor modifications (Engel et al. 1999; Engel et al. 2003). After digestion of fetal or neonatal hearts (0.14 mg/ml collagenase II (Invitrogen), 0.55 mg/ml pancreatin (Sigma)) cells were cultured in DMEM/F12 (GIBCO) containing 3 mM Na-pyruvate, 0.2% BSA, 0.1 mM ascorbic acid (Sigma), 0.5% Insulin-Transferrin-Selenium (100×), penicillin (100 U/ml), streptomycin (100 μg/ml), and 2 mM L-glutamine (GIBCO). Adult cardiomyocytes were cultured for 1 day in standard medium (DMEM, 25 mM Hepes, 5 mM taurine, 5 mM creatine, 2 mM L-carnitine (Sigma), 20 U/ml insulin (GIBCO), 0.2% BSA, penicillin (100 U/ml), and streptomycin (100 μg/ml)). Cells were stimulated in culture medium without BSA containing 2 mM L-glutamine. Neonatal and adult cardiomyocytes were initially cultured for 48 h in the presence of 20 μM cytosine β-D-arabinofuranoside (araC, Sigma) and 5% horse serum before stimulation to prevent proliferation of non-myocytes. Adult cardiomyocytes were incubated another 3 days with araC during stimulation. Neonatal cardiomyocytes were stimulated every day with growth factors for BrdU and H3P analyses (FGF1 and NRG-1-1β at 50 ng/ml, IL-1β at 100 ng/ml, R&D Systems, all diluted in 0.1% BSA/PBS). SB203580 and LY294002 (Calbiochem) was added every day. Adult cardiomyocytes were stimulated with fresh medium and SB203580 every 3 days.
RNA of neonatal cardiomyocytes was prepared 72 h after stimulation using Trizol (Invitrogen). RT-PCR was performed following standard protocols (Supplemental Table S4). Affymetrix technology was applied using the Rat Expression Set 230.
To determine the effect of p38 inhibition on cardiomyocyte differentiation and proliferation, a specific inhibitor of p38α and p38β, SB203580, was used and evaluated using cDNA microarray analyses using neonatal rat cardiomyocytes. […] Expression changes of a subset of genes were validated by RT-PCR.
Stimulation of neonatal cardiomyocytes with FGF1 induces fetal gene expression. To determine if FGF1, in combination with p38 inhibition, can reverse differentiation and induce cell cycle re-entry, we repeated cDNA microarray analyses (Supplemental Table S1). […]

## FGF1: growth factor FGF1 (R&D Systems)
  Actn1 expression, x-fold change: 1.9 x-fold
  CXC chemokine LIX expression, x-fold change: 0.4 x-fold
  Cdc42 effector protein expression, x-fold change: 0.8 x-fold
  Cfl1 expression, x-fold change: 0.6 x-fold
  Connexin 40 expression, x-fold change: 0.8 x-fold
  Edg2 expression, x-fold change: 0.4 x-fold
  Enigma expression, x-fold change: 2.3 x-fold
  Epha3 expression, x-fold change: 0.5 x-fold
  Epidermal growth factor-like protein, T16 precursor expression, x-fold change: 0.3 x-fold
  Fgf16 expression, x-fold change: 0.8 x-fold
  Figf expression, x-fold change: 0.3 x-fold
  Kruppel-like factor 4 expression, x-fold change: 1.1 x-fold
  Lgals5 expression, x-fold change: 2.9 x-fold
  Maf-2 expression, x-fold change: 0.5 x-fold
  Mtss1 expression, x-fold change: 0.5 x-fold
  Nr2f2/COUP-TFII expression, x-fold change: 0.8 x-fold
  Nudt4 expression, x-fold change: 0.8 x-fold
  Osteoglycin expression, x-fold change: 0.4 x-fold
  Osterix expression, x-fold change: 0.6 x-fold
  PTTG1 expression, x-fold change: 1.4 x-fold
  Protein tyrosine phosphatase, receptor type, D (Ptprd) expression, x-fold change: 0.5 x-fold
  RPTPK expression, x-fold change: 0.4 x-fold
  Rbp2 expression, x-fold change: 0.6 x-fold
  Rdc1 expression, x-fold change: 0.5 x-fold
  Rev-ErbA-beta expression, x-fold change: 0.7 x-fold
  RhoGAP expression, x-fold change: 0.8 x-fold
  Septin 6 expression, x-fold change: 1.9 x-fold
  Serine-threonine specific protein phosphatase, GL subunit expression, x-fold change: 0.7 x-fold
  Seta expression, x-fold change: 1.0 x-fold
  TRAF4 associated factor 1 expression, x-fold change: 1.9 x-fold
  Troponin I, slow isoform expression, x-fold change: 0.6 x-fold
  Vcam1 expression, x-fold change: 0.3 x-fold
  Wisp2 expression, x-fold change: 0.8 x-fold
Listed as FGF
  (BEM)-3 expression, x-fold change: 1.4 x-fold and 1.6 x-fold
  AGTR1 expression, x-fold change: 0.4 x-fold and 0.5 x-fold
  Acta1 expression, x-fold change: 4.8 x-fold and 6.3 x-fold
  Actinin expression, x-fold change: 1.8 x-fold and 1.5 x-fold
  Adrenergic, alpha 1B-, receptor expression, x-fold change: 0.8 x-fold and 0.7 x-fold
  Adrenomedullin precursor expression, x-fold change: 0.4 x-fold and 0.6 x-fold
  Agtr1a expression, x-fold change: 0.6 x-fold and 0.4 x-fold
  Anillin expression, x-fold change: 3.3 x-fold and 1.9 x-fold
  Ankyrin 2, neuronal expression, x-fold change: 0.6 x-fold and 0.7 x-fold
  Ankyrin repeat domain-containing SOCS box protein 12 expression, x-fold change: 0.5 x-fold and 0.6 x-fold
  Apoptosis protein MA-3 expression, x-fold change: 0.8 x-fold and 0.7 x-fold
  Arrestin domain containing 3 expression, x-fold change: 0.3 x-fold and 0.5 x-fold
  Aurora B expression, x-fold change: 1.5 x-fold and 1.9 x-fold
  BMP2 expression, x-fold change: 6.0 x-fold and 3.4 x-fold
  BMP6 precursor expression, x-fold change: 1.4 x-fold and 1.7 x-fold
  BOC expression, x-fold change: 0.5 x-fold and 0.6 x-fold
  Bcl2a1 expression, x-fold change: 0.4 x-fold and 0.6 x-fold
  Bmp3 expression, x-fold change: 0.5 x-fold and 0.6 x-fold
  Bub1 expression, x-fold change: 1.4 x-fold and 1.2 x-fold
  CABC1 expression, x-fold change: 0.6 x-fold and 0.5 x-fold
  CDKN3/KAP/CDI1 expression, x-fold change: 1.7 x-fold and 2.0 x-fold
  CENP-E expression, x-fold change: 1.3 x-fold and 1.7 x-fold
  CISH expression, x-fold change: 0.4 x-fold and 0.5 x-fold
  CKS2 expression, x-fold change: 1.7 x-fold and 1.4 x-fold
  CREB5 expression, x-fold change: 1.3 x-fold and 1.8 x-fold
  CSRP1 expression, x-fold change: 1.9 x-fold and 1.8 x-fold
  CXCL4 expression, x-fold change: 0.7 x-fold and 0.6 x-fold
  Cacalmodulin-dependent protein kinase phosphatase expression, x-fold change: 0.9 x-fold and 1.3 x-fold
  Cadherin 13 expression, x-fold change: 1.5 x-fold and 1.9 x-fold
  Calponin 1 expression, x-fold change: 6.4 x-fold and 4.9 x-fold
  Casein kinase I delta expression, x-fold change: 1.3 x-fold and 0.9 x-fold
  Catenin, alpha-1 expression, x-fold change: 1.6 x-fold and 1.5 x-fold
  Cdc2a expression, x-fold change: 1.7 x-fold and 1.8 x-fold
  Cdc20 expression, x-fold change: 1.9 x-fold and 1.7 x-fold
  Cdc25B expression, x-fold change: 1.6 x-fold and 1.3 x-fold
  Cdca3 expression, x-fold change: 1.3 x-fold and 1.4 x-fold
  Cish2 expression, x-fold change: 0.6 x-fold and 0.8 x-fold
  Cish3 expression, x-fold change: 0.8 x-fold and 0.9 x-fold
  Cish expression, x-fold change: 0.4 x-fold and 0.5 x-fold
  Connexin 43 expression, x-fold change: 0.9 x-fold and 0.8 x-fold
  Csrp3/MLP expression, x-fold change: 2.7 x-fold and 4.2 x-fold
  Ctgf expression, x-fold change: 1.9 x-fold and 1.6 x-fold
  Cxcl12 expression, x-fold change: 0.5 x-fold and 0.3 x-fold
  Cyclin A2 expression, x-fold change: 1.8 x-fold and 1.1 x-fold
  Cyclin B1 expression, x-fold change: 1.2 x-fold and 1.0 x-fold
  Cyclin B expression, x-fold change: 1.9 x-fold and 1.8 x-fold
  Cyclin D1 expression, x-fold change: 4.2 x-fold and 3.3 x-fold
  DAPK1 expression, x-fold change: 0.6 x-fold and 0.5 x-fold
  DUSP6 expression, x-fold change: 2.8 x-fold and 4.4 x-fold
  Ddr2 expression, x-fold change: 0.5 x-fold and 0.8 x-fold
  Desmin expression, x-fold change: 2.2 x-fold and 1.8 x-fold
  Diaphanous homolog 3 expression, x-fold change: 2.5 x-fold and 1.9 x-fold
  Dok-5 expression, x-fold change: 2.7 x-fold and 2.6 x-fold
  Dri42 expression, x-fold change: 0.5 x-fold and 0.3 x-fold
  ETV5/ERM/PEA3 expression, x-fold change: 20.4 x-fold and 11.2 x-fold
  Ect2 expression, x-fold change: 1.9 x-fold and 2.5 x-fold
  Egfl3 expression, x-fold change: 0.4 x-fold and 0.5 x-fold
  Emr1 expression, x-fold change: 0.6 x-fold and 0.4 x-fold
  EphA2 expression, x-fold change: 2.2 x-fold and 1.7 x-fold
  Ephrin B3 expression, x-fold change: 0.7 x-fold and 0.8 x-fold
  FCEG expression, x-fold change: 0.7 x-fold and 0.5 x-fold
  FHL1 expression, x-fold change: 7.3 x-fold and 5.1 x-fold
  FHOS2 expression, x-fold change: 0.7 x-fold and 0.8 x-fold
  Fancd2 expression, x-fold change: 0.7 x-fold and 1.1 x-fold
  Fbln5 expression, x-fold change: 0.4 x-fold and 0.6 x-fold
  Fcgr2 expression, x-fold change: 0.5 x-fold and 0.6 x-fold
  Fcgr3 expression, x-fold change: 0.5 x-fold and 0.6 x-fold
  Flt4/VEGFR3 expression, x-fold change: 1.8 x-fold and 2.5 x-fold
  Frizzled-related protein 2 expression, x-fold change: 0.5 x-fold and 0.3 x-fold
  Fzd1 expression, x-fold change: 0.7 x-fold and 0.8 x-fold
  G0S2-like protein expression, x-fold change: 0.5 x-fold and 0.6 x-fold
  GADD45a expression, x-fold change: 1.8 x-fold and 1.3 x-fold
  GADD45 gamma expression, x-fold change: 3.0 x-fold and 2.9 x-fold
  GDF15 expression, x-fold change: 1.6 x-fold and 2.6 x-fold
  GOA1B expression, x-fold change: 2.9 x-fold and 3.0 x-fold
  Gab1 expression, x-fold change: 0.6 x-fold and 0.7 x-fold
  Ghr expression, x-fold change: 0.9 x-fold and 0.8 x-fold
  Glypican (GPC)-3 expression, x-fold change: 0.4 x-fold and 0.5 x-fold
  Growth hormone receptor expression, x-fold change: 0.7 x-fold and 0.8 x-fold
